Earlier results in patent US9358223B2, “Formulation for preventing or reducing bleeding at a surgical site” (WARSAW ORTHOPEDIC, INC., priority 2009, dated 2016).

System: blood pressure
Conditions: perioperative period, patients undergoing rhytidectomy

Clc1cccc(Cl)c1N=C1NCCN1 [Clonidine, 2,6-dichloro-N-2-imidazolidinyldenebenzenamine]
regulation of blood pressure: effectively regulate blood pressure
